Article PMC5602538, “Assessment of the Drug Interaction Potential of Unconjugated and GalNAc3-Conjugated 2′-MOE-ASOs” (Molecular Therapy. Nucleic Acids, 2017)
{GalNAc3} = trishexylamino-C6 triantennary GalNAc conjugate; e = 2'-O-(2-methoxyethyl) (MOE); d = 2'-deoxy (DNA)

Assays:
P-gp = system: T1, P-gp; test: P-gp substrate study, bi-directional flux in MDCK-MDR1 cells; assay type: in vitro ADME; conditions: 10 μM ASO, Papp B to A / Papp A to B
T1 construct: host or cells: MDCK-MDR1 (MDCK cells stably transfected with MDR1)
Experimental: MDCK-MDR1 cells and MDCK-II cells transfected with BCRP were washed with HBSS at 37°C. Wells of the culture plate served as the apical compartment, and 150 μL of HBSS solutions was added to the apical wells. These solutions also contain one of the following: vehicle (for probe substrate controls), 100 μM test article (for test article inhibition experiments), 1 μM Ko143 (for BCRP inhibition), or 3 μM elacridar (for P-gp inhibition). A 96-well receiver tray was prepared with each well containing 300 μL of buffer solution corresponding to the apical wells. Receiver tray wells served as the basal compartment. The plate and receiver tray were assembled and incubated at 37°C for 30 min. The solution was then aspirated from the apical compartment and the 96-well plate was removed from the receiver tray. Donor and receiver wells for inhibition or donor (containing substrate) and receiver (without substrate) wells for substrate studies were then prepared for bi-directional flux studies. For the probe substrate transport assays, HBSS in each donor well contained one of the following probe substrates: BCRP, 2 μM [^3H]-prazosin; or P-gp, 100 nM [^3H]-quinidine. For positive control inhibition assays, HBSS contained the reference inhibitor in both donor and receiver wells, with the probe substrate only in donor wells. […] These samples were counted on a 1450 Microbeta (PerkinElmer). For samples containing test articles, samples were quantitated using LC-MS.
For BCRP and P-gp, apparent permeability Papp was determined using the equation Papp=(Vr/(A×C0))×(Cr/Δt) whereby Papp is the apparent permeability, Vr is the volume of the receiver compartment (mL), C0 is the initial concentration of the donor solution, A is the monolayer area (cm^2), Cr is the receiver well concentration at the end of the incubation, and Δt represents the change in time from t = 0 (s). The efflux ratio (ER) was determined by dividing Papp in the B→A direction by that in the A→B direction as: ER=Papp(B→A)/Papp(A→B).

[1] = system: OAT1, OAT3, OCT1, OCT2, OATP1B1, OATP1B3, BCRP, P-gp, and BSEP; test: Inhibition studies of major SLC and ABC transporters, all transporters evaluated; assay type: in vitro ADME; conditions: 100 μM ASO
Experimental: A 96-well cell culture plate containing a monolayer of MDCK-II cells grown on a permeable support and a corresponding receiver tray was used. The basolateral compartment of the culture plate and wells were washed with warm HBSS three times, with wells of the culture plate serving as the apical compartment. The wash was aspirated by adding 150 μL of 37°C HBSS to both compartments. Plates were incubated at 37°C with orbital shaking at 60 rpm for 15 min for OAT1, OAT3, OCT1, OCT2, OATP1B1, and OATP1B3 (±5 min). The pre-incubation buffer from both compartments was aspirated and 150 μL of the following was added to the basal compartment. For the probe substrate transport assay, HBSS in each well contained one of following probe substrates (positive control for transport), OCT1, 2 μM [^3H]-MPP^+; OCT2, 10 μM [^14C]-metformin; OAT1, 2 μM [^3H]-p-aminohippurate; OAT3, 10 μM [^3H]-p-aminohippurate; OATP1B1, 2 μM [^3H]-estradiol-17 β-D-glucuronide; and OATP1B3, 2 μM [^3H]-cholecystokinin octapeptide (CCK-8). […] Inhibition studies contained HBSS in each well, the probe substrate, and 100 μM of each test article, whereas substrate studies contained HBSS in each well and 10 μM of each test article. Plates were incubated at 37°C with orbital shaking at 60 rpm for 5 min. Both sides of the permeable support were washed four times with ice-cold PBS and 60 μL of cell extraction solution was added to each well. Plates were agitated for 15 min at 120 rpm, after which a 30-μL sample of the extract was collected. Samples containing probe substrate were added to 200 μL of scintillation fluid and counted on a 1450 Microbeta (PerkinElmer), whereas samples containing the test article were kept frozen. Test article concentrations, including control samples, were evaluated by an LC-MS method.
MDCK-MDR1 cells and MDCK-II cells transfected with BCRP were washed with HBSS at 37°C. Wells of the culture plate served as the apical compartment, and 150 μL of HBSS solutions was added to the apical wells. […]

Substance	Efflux ratio, P-gp (P-gp)	Inhibitor of BCRP, P-gp, OAT1, OAT3, OCT1, OCT2, OATP1B1, OATP1B3, or BSEP (conclusion) [1]
ISIS 304801: 20-mer (5-10-5) 2′-MOE gapmer PS backbone antisense inhibitor of apoC-III, sequence AGCTTCTTGTCCAGCTTTAT (sugars from the 5' end e5 d10 e5, all phosphorothioate, methylation of C not given here)	≤ 2.0	not considered inhibitors
ISIS 420915: 20-mer 2′-MOE gapmer PS backbone antisense inhibitor of transthyretin, sequence TCTTGGTTACATGAAATCCC (all phosphorothioate, sugars by position and methylation of C not given here; 2'-MOE gapmer)	≤ 2.0	not considered inhibitors
ISIS 681257: 20-mer 2′-MOE gapmer PS/PO mixed backbone ASO conjugated to 5′-trishexylamino GalNAc3, targets Lp(a), sequence TGCTCCGTTGGTGCTTGTTC (5' {GalNAc3}, sugars by position and backbone not given here; 2'-MOE gapmer with mixed PS/PO backbone)	≤ 2.0	not considered inhibitors
